Results taken from patent US20140371189A1, “TESTOSTERONE REPLACEMENT THERAPY IN ANIMALS, INCLUDING DOGS” (David Bieber Consulting, LLC, priority 2013, published 2014).

Experiments:
[1] = injectable ester; cited from earlier work
[2] = cited from earlier work; for effectiveness when taken orally: oral
[3] = system: neutered male Cocker Spaniel with declines in mobility and arthritis; experiment: Example 2: clinical outcome and side effects in a neutered male Cocker Spaniel
Method: (§1) A 28.7 pound, 12 year and two month-old neutered male Cocker Spaniel named Blackjack was evaluated because of his owner's concerns about declines in his level of mobility and arthritis.
(§2) During month one of the protocol, Blackjack was screened for treatment by conducting a thorough physical exam, complete blood chemistry, urinalysis, and testosterone level. […] An initial injection of testosterone IM was administered and Blackjack began treatment with Previcoxx 57 mg once per day. A follow-up was conducted by phone one day after the initial injection and again at two weeks post injection.
(§3) Previcoxx was discontinued and Metacam was prescribed. During a follow-up appointment Blackjack received an injection of testosterone IM. […] It was decided to increase the dosage of testosterone.
Radiographs were taken to rule out degenerative joint disease and neoplasia. During month three, the patient received another injection of testosterone IM. […] Blackjack was then operated on to treat the fracture.
Monthly injections of testosterone continued. The dosage of testosterone had to be lowered after surgery due to concerns about Blackjack being too active after surgery to repair his fracture and was raised again after healing was complete. During month nine, Blackjack underwent further surgery to remove multiple skin growths.
During month ten Blackjack received an injection of testosterone, returning him to the dosage he received prior to his injury and subsequent surgery. […] During month twelve Blackjack continued receiving testosterone injections, and during month thirteen additional skin growths had to be removed.

[4] = system: dogs compromised by osteoarthritis, intervertebral disc disease, hip dysplasia, weakness due to old age, muscle atrophy and joint pain; experiment: Example 1: testosterone replacement therapy study, medical record review; format: in vivo, dog
From the text: In order to treat dogs, horses, or other animals in need of testosterone replacement therapy, the following protocol should be followed: • (1) Obtain information about potential patient via a clinical intake process and questionnaire such as the example shown in the drawing figure; • (2) Conduct a general physical examination on potential patient; • (3) Conduct laboratory tests on potential patient's blood and/or urine, including measuring initial testosterone levels in the patient's blood. This can be total testosterone or free testosterone. […]
A study was undertaken to determine if dogs compromised by osteoarthritis (also known as degenerative joint disease), intervertebral disc disease, hip dysplasia, weakness due to old age, muscle atrophy and joint pain experienced improvements following testosterone replacement therapy. […] Data from the medical records were analyzed to determine the efficacy of the treatment protocol. Data recorded from medical records included breed, date of birth, age, sex, neutered vs. intact, baseline testosterone level, date of testosterone injections and improvement status (improved vs. no noticeable improvement). […]
Following informed assent by each dog owner, each dog underwent an initial clinical exam including a detailed health history, list of medications, a CBC, urinalysis and baseline testosterone level were conducted. […] Changes in mobility, pain level/medications needed, energy and muscle tone were assessed and testosterone dosage was adjusted if needed prior to each injection. Follow-up testosterone levels were measured one week after the initial injection and on an as needed basis throughout the course of treatment. […]

[5] = Example 2: blood testosterone level during testosterone therapy; settings: for testosterone level: dog Blackjack
Method: as §1, §2, §3
At this time a regular annual exam was conducted.

[6] = free, non-esterified form; cited from earlier work

In the case of `C[C@]12CC[C@H]3[C@@H](CCC4=CC(=O)CC[C@@]43C)[C@@H]1CC[C@@H]2OC(=O)CCC1CCCC1` [Testosterone cypionate], the release time [1] is given as 8 to 10 days.

For `CCCCCCC(=O)O[C@H]1CC[C@H]2[C@@H]3CCC4=CC(=O)CC[C@]4(C)[C@H]3CC[C@]12C` [Testosterone enanthate], the release time [1] is listed as 8 to 10 days.

In the case of `C[C@]12CC[C@H]3[C@@H](CCC4=CC(=O)CC[C@@]43C)[C@@H]1CC[C@@H]2OC(=O)CCc1ccccc1` [Testosterone phenylpropionate], the release time [1] is listed as 1-3 weeks.

For `CCCCCCCCCCC(=O)O[C@H]1CC[C@H]2[C@@H]3CCC4=CC(=O)CC[C@]4(C)[C@H]3CC[C@]12C` [testosterone undecanoate], the “effectiveness when taken orally” value [2] is listed as “effective when taken orally” and the “time to elimination from the body” value ([2]; orally administered) is listed as 3 to 4 h.

In the case of `C[C@]12CC[C@H]3[C@@H](CCC4=CC(=O)CC[C@@]43C)[C@@H]1CC[C@@H]2O` [testosterone], the “effectiveness when taken orally” value [2] is listed as “not effective”, the “healing of distal humeral lateral condylar fracture while being treated” value ([3]; after surgery) is listed as “completely healed from this fracture within two months of surgery” and the side effects ([3]; follow-up one day and two weeks after initial IM injection) is listed as “No side effects were reported”. The “behaviour leading to dosage decrease” value ([3]; month eleven) was “mounting other dogs”, the owner-reported improvements ([3]; owner interview in week 57 of the protocol) was “improvements in Blackjack's ability to jump on furniture, ascend and descend stairs, and rise from sitting and lying positions” and the “adverse side effects from the treatment” value ([3]; whole course of treatment) was “no adverse side effects”. For the same compound, the “subjects that made improvements after the study protocol” value ([4]; 25 dogs analysed, n=23 improved, monthly testosterone injections, improvement = more mobility and/or energy, less pain medication, less muscle atrophy) was “ninety-two”, the side effects ([4]; evaluated at monthly follow-ups, all dogs) was “no side effects were observed” and the “dogs whose injection dosages had to be lowered due to becoming too active” value ([4]; two of 25 dogs) was 8%. It also gave a testosterone level ([5]; second month, one week after second IM injection, baseline <40 pg/ml) of 604.80 pg/mL, a testosterone level ([5]; third measurement (month three/four) after increased IM dosage) of 1224.50 pg/mL and a concentration at 4 month ([5]; male, Cocker Spaniel, dog, blood, intramuscular) of 1.22 ng/mL. For the same compound, the “solubility in oil and water” value [6] was “poor solubility in both oil and water”.

For Testosterone propionate, the release time [1] is given as 3 to 4 days.
